Earlier results in US10736937B2 (priority 2014, dated 2020).

Tested on: Streptococcus pneumoniae
Details: mucosal administration; co-administrated with the pathogen or 2 to 24 h before bacterial challenge

For flagellin, the “protection against Streptococcus pneumoniae lung infection” value is listed as “protect”.
